{"source": "paper PMC5315687", "about": "(ACS chemical biology, 2017)", "molecular_target": "T1, His6-MibD (Microbispora sp. ATCC PTA-5024, UniProt W2ESX4)", "T1 sequence (W2ESX4 1-215)": "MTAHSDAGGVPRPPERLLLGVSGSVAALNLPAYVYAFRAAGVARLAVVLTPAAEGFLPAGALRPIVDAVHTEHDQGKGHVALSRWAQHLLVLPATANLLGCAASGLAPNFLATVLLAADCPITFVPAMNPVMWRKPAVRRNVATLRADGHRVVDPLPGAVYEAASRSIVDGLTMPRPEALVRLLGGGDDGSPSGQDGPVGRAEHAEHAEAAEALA", "assay": "flavin isolated from heat-denatured protein, MALDI-TOF MS", "format": "binding", "settings": "non-covalent, co-purified", "data": [{"smiles": "Cc1cc2nc3c(=O)[nH]c(=O)nc-3n(C[C@H](O)[C@H](O)[C@H](O)COP(=O)(O)OP(=O)(O)OC[C@H]3O[C@@H](n4cnc5c(N)ncnc54)[C@H](O)[C@@H]3O)c2cc1C", "note": "[FAD]", "values": [{"measurement": "flavin isolated from heat-denatured protein, MALDI-TOF MS", "value": "The isolation of FAD from His6-MibD suggests the cofactor is not covalently linked."}]}]}
